Assay results: the supplement of paper PMC10307832

Experiments:
Experiment in all cases: relative viability (nuclei count vs DMSO), 5 days (fraction); higher = more cells survive
[1] = compound: Cc1cnc(CNC(=O)c2c(=O)c3ccc(N4CCCN(C)CC4)nc3n3c2sc2ccccc23)cn1 [CX-5461] + CS(=O)(=O)N1CCN(Cc2cc3nc(-c4cccc5[nH]ncc45)nc(N4CCOCC4)c3s2)CC1 [Pictilisib] (partner 1 µM)
In short: (§1)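 Relative viability divides the nuclei count in treated wells by that in vehicle wells. Lung cancer cell lines were seeded in 1536-well plates, dosed by pin tool the next day, and fixed and stained after 5 days in one step with final 0.05% Triton X-100, 1% formaldehyde and 1 ug/ml Hoechst. Dosing was a single drug or a fixed anchor-drug dose plus five library-drug doses (not always all listed) in √10 steps, and values are medians of duplicate plates imaged at 4×.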

[2] = compound: Cc1cnc(CNC(=O)c2c(=O)c3ccc(N4CCCN(C)CC4)nc3n3c2sc2ccccc23)cn1 [CX-5461] + COc1cccc2cc(-c3nc([C@H]4CC[C@H](C(=O)O)CC4)n4ncnc(N)c34)[nH]c12 [OSI-027] (partner 0.5 µM)
In short: as §1

[3] = compound: Cc1cnc(CNC(=O)c2c(=O)c3ccc(N4CCCN(C)CC4)nc3n3c2sc2ccccc23)cn1 [CX-5461] + Cc1cc(Nc2cc(N3CCN(C)CC3)nc(Sc3ccc(NC(=O)C4CC4)cc3)n2)n[nH]1 [Tozasertib] (partner 0.1 µM)
In short: as §1

[4] = compound: Cc1cnc(CNC(=O)c2c(=O)c3ccc(N4CCCN(C)CC4)nc3n3c2sc2ccccc23)cn1 [CX-5461] + C[C@]1(O)C[C@@H](c2nc(-c3ccc4ccc(-c5ccccc5)nc4c3)c3c(N)nccn32)C1 [Linsitinib] (partner 1 µM)
In short: as §1

Cell Line | relative viability ([1]; first compound 0.01 µM) | relative viability ([1]; first compound 0.03162 µM) | relative viability ([1]; first compound 0.1 µM) | relative viability ([1]; first compound 0.3162 µM) | relative viability ([1]; first compound 1 µM) | relative viability ([2]; first compound 0.01 µM) | relative viability ([2]; first compound 0.03162 µM) | relative viability ([2]; first compound 0.1 µM) | relative viability ([2]; first compound 0.3162 µM) | relative viability ([2]; first compound 1 µM) | relative viability ([3]; first compound 0.01 µM) | relative viability ([3]; first compound 0.03162 µM) | relative viability ([3]; first compound 0.1 µM) | relative viability ([3]; first compound 0.3162 µM) | relative viability ([3]; first compound 1 µM) | relative viability ([4]; first compound 0.01 µM) | relative viability ([4]; first compound 0.03162 µM) | relative viability ([4]; first compound 0.1 µM) | relative viability ([4]; first compound 0.3162 µM) | relative viability ([4]; first compound 1 µM)
201T | 0.713 | 0.748 | 0.753 | 0.708 | 0.721 | 0.911 | 0.669 | 0.726 | 0.502 | 0.552 | 0.921 | 1.04 | 0.945 | 0.847 | 0.925 | 1.05 | 0.995 | 1.03 | 1.02 | 0.993
A549 | 0.555 | 0.525 | – | 0.472 | 0.0627 | – | – | – | – | – | – | – | – | – | – | 0.644 | 0.712 | 0.57 | 0.122 | 0.544
A-427 | 0.78 | 0.868 | 0.732 | – | 0.584 | 0.488 | 0.534 | 0.542 | – | 0.378 | 0.195 | 0.247 | 0.212 | – | 0.212 | 1.19 | 1.11 | 1.15 | – | 1.08
ABC-1 | 0.792 | 1 | – | 0.289 | 0.573 | 0.465 | 0.562 | 0.251 | – | 0.362 | 0.15 | 0.194 | 0.188 | – | 0.186 | 1.11 | 0.84 | – | 0.817 | 0.494
BEN | 0.662 | 0.573 | 0.6 | 0.543 | 0.534 | 0.346 | 0.321 | 0.286 | 0.281 | 0.284 | 0.481 | 0.529 | 0.499 | 0.495 | 0.498 | 1.01 | 0.967 | 1.01 | 0.827 | 0.727
CAL-12T | 0.384 | 0.386 | 0.331 | 0.33 | 0.449 | 0.587 | 0.693 | 0.389 | 0.679 | 0.347 | 0.361 | 0.353 | 0.222 | 0.272 | 0.174 | 0.874 | 1.05 | 0.843 | 0.868 | 0.622
COR-L23 | 0.811 | 1.15 | 0.656 | 0.65 | 0.443 | 0.802 | 0.808 | 0.7 | 0.835 | 0.472 | 0.246 | 0.202 | 0.176 | 0.182 | 0.119 | 0.908 | 1.05 | 0.651 | 0.969 | 0.472
COR-L 105 | 0.425 | 0.461 | 0.352 | 0.281 | 0.333 | 0.767 | 0.665 | 0.532 | 0.391 | 0.445 | 0.342 | 0.339 | 0.4 | 0.371 | 0.306 | 1.05 | 0.93 | 1.08 | 0.852 | 0.59
Calu-6 | 1 | 1.04 | 0.817 | 0.845 | 0.409 | – | – | – | – | – | – | – | – | – | – | 1.02 | 0.952 | 0.986 | 0.827 | 0.51
ChaGo-K-1 | 0.938 | 0.658 | 0.564 | 0.35 | 0.395 | 0.578 | 0.636 | 0.537 | 0.331 | 0.315 | 0.185 | 0.227 | 0.247 | 0.229 | 0.232 | – | – | – | – | –
EBC-1 | 0.375 | 0.344 | 0.331 | 0.362 | 0.224 | – | – | – | – | – | – | – | – | – | – | 0.988 | 1.04 | 1.04 | 0.859 | 0.753
EKVX | 0.47 | 0.447 | 0.429 | – | 0.389 | 0.745 | 0.676 | 0.786 | 0.734 | 0.688 | 0.387 | 0.366 | 0.332 | 0.35 | 0.378 | 1.19 | 1.02 | 0.962 | – | 0.962
EMC-BAC-2 | 0.555 | 0.565 | 0.562 | 0.414 | 0.353 | 0.334 | 0.376 | 0.338 | 0.322 | 0.242 | 0.275 | 0.314 | 0.247 | 0.252 | 0.244 | 0.843 | 0.914 | 0.828 | 0.824 | 0.815
EPLC-272H | 0.306 | 0.353 | 0.339 | – | 0.335 | 0.259 | 0.288 | 0.297 | – | 0.31 | 0.22 | 0.381 | 0.33 | – | 0.477 | 1.3 | 1.27 | 1.09 | – | 1.06
H3255 | 0.489 | 0.554 | 0.469 | 0.347 | 0.422 | 0.568 | 0.542 | 0.559 | 0.543 | 0.568 | 0.691 | 0.603 | 0.694 | 0.568 | 0.527 | 1.04 | 1.01 | 0.935 | 0.735 | 0.988
HARA | 0.634 | 0.559 | 0.37 | 0.497 | 0.267 | 0.616 | 0.572 | 0.423 | – | 0.319 | 0.137 | 0.115 | 0.138 | – | 0.189 | 0.953 | 1.04 | 0.98 | 0.772 | 0.966
HCC-15 | 0.753 | 0.933 | 0.749 | 0.239 | 0.495 | 0.692 | 0.71 | 0.66 | 0.554 | 0.253 | 0.434 | 0.586 | 0.333 | 0.321 | 0.176 | 0.906 | 0.904 | 0.933 | 0.909 | 0.834
HCC-44 | 0.584 | 0.877 | 0.492 | 0.644 | 0.43 | 0.564 | 0.623 | 0.6 | 0.51 | 0.366 | 1.05 | 1.25 | 0.922 | 0.811 | 0.29 | 0.734 | 0.681 | 0.685 | 0.676 | 0.644
